Measured values reported in US10137103B2, “Compositions and methods for the treatment of fatty acid metabolism disorders” (The Children's Hospital of Philadelphia, priority 2015, dated 2018).
Changes are numbered by the printed parent chain.

What was measured:
ob/ob mice = experiment: Liver and serum triglycerides and liver histology in ob/ob mice; assay type: in vivo, mouse
Description: Formalin-fixed liver sections were stained with Trichrome Stain Kit (Sigma) according to the manufacturer's instructions. Triglycerides were extracted from liver according to the Folch method (Folch et al. (1957) J. Biol. Chem., 226:497-509). Serum and liver triglyceride concentrations were quantified with a triglyceride quantification kit following the manufacturer's instructions (Abcam). Leptin-deficient mice develop liver steatosis spontaneously under normal chow diet starting at 4 to 5 weeks of life that is characterized by a diminished rate of palmitate oxidation and accumulation of fat droplets in the form of triglycerides within the hepatocytes (Brix et al. (2002) Mol. Genet. Metab., 75:219-226; de Oliveira et al. (2008) J. Am. Coll. Nutr., 27:299-305). […] This significant reduction in the rate of palmitoyl-CoA oxidation indicated a deficiency in mitochondrial β-oxidation of fatty acids. […] GSNO was used to deliver nitric oxide equivalents because of the extensive use of this pharmacological agent in cellular models to modify proteins by S-nitrosylation despite limited cellular permeability (Hara et al. (2005) Nat. Cell Biol., 7:665-674; Chung et al. (2004) Science 304:1328-1331). […] Moreover, the restoration of palmitoyl-CoA oxidation in GSNO-injected ob/ob mice was associated with a significant reduction of the concentration of liver triglycerides.

wild-type VLCAD = target: T1, wild-type VLCAD (Mus musculus, UniProt P50544); experiment: Hepa 1 to 6 cells expressing FLAG-tagged wild-type VLCAD; assay type: cell-based; details: 250 mM GSNO for 30 minutes
T1 construct: 3xFLAG (C); host or cells: Hepa 1 to 6 cells (mouse hepatocytes)
T1 sequence (P50544 42-656): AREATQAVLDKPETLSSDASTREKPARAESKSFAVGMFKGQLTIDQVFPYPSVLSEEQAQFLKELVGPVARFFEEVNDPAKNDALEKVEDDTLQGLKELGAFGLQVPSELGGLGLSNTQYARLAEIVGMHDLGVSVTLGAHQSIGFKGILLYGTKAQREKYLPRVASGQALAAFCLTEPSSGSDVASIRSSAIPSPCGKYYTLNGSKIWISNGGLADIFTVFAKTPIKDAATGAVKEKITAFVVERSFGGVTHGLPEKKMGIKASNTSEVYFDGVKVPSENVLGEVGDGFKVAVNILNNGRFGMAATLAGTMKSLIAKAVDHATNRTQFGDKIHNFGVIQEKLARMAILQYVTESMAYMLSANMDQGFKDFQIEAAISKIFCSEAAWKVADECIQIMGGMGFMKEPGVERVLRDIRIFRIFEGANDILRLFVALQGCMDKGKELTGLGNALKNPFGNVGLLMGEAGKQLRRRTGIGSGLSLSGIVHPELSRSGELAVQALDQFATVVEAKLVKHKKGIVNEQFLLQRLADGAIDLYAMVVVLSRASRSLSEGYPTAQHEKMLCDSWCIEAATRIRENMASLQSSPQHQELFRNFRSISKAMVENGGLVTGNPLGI
Procedure: Hepa 1 to 6 cells were grown in Dulbecco's modified Eagle's medium (DMEM) containing 10% fetal bovine serum, 2 mM glutamine, penicillin (100 U/ml), and streptomycin ([…]) at 37° C. in air with 5% CO2. Cells were plated at a density of 5×10^4 cells/cm^2 and cultured under normal conditions for 24 hours. Cells were transfected with FLAG®-tagged wild-type VLCAD or FLAG®-tagged C238A VLCAD with Lipofectamine® 2000 reagent (Life Technologies) according to the protocol provided by the manufacturer. Forty-eight hours after transfection, the growth medium was replaced with serum-free DMEM, and […] freshly prepared GSNO was added for 30 minutes, after which the cells were extensively washed with PBS. Cell lysates were obtained immediately or 60, 120, and 240 minutes after the removal of GSNO. The samples were protected from UV light exposure. Lysates were assayed for protein concentration, and equal amounts of protein per sample were used for organic mercury-assisted capture.
Additional evidence for the functional consequences of S-nitrosylation of VLCAD was obtained in mouse hepatocytes transiently expressing wild-type VLCAD or a point mutant that could not be S-nitrosylated (C238A). […] Upon removal of GSNO from the media and extensive washing, both the abundance of S-nitrosylated VLCAD and the enzymatic-specific activity declined over time (FIGS. 4A and 4B).

C238A VLCAD mutant = target: T2, C238A VLCAD mutant (Mus musculus, UniProt P50544, C238A); experiment: Hepa 1 to 6 cells expressing FLAG-tagged C238A VLCAD; assay type: cell-based; details: same experimental conditions
T2 construct: 3xFLAG (C); mutant made in house by QuikChange) Ex-Mm01013-M14; host or cells: Hepa 1 to 6 cells (mouse hepatocytes)
T2 sequence (P50544 42-656 C238A): T1 sequence (P50544 42-656) with C197A
Description: The QuikChange® Lightning Site-Directed Mutagenesis Kit (Agilent Technologies) was used to introduce single amino acid mutations in complementary DNA encoding VLCAD. A cysteine-to-alanine mutant at amino acid position 238 was generated with Ex-Mm01013-M14 (hereinafter referred to as pVLCAD-3×FLAG®), a plasmid encoding mouse VLCAD fused to three FLAG® tags in the C-terminal region of the protein (GeneCopoeia), as a template. The forward primer 5′-[…]-3′ (SEQ ID NO: 1) and the reverse primer 5′-[…] […]-3′ (SEQ ID NO: 2) were used to substitute an alanine codon for a cysteine codon in pVLCAD-3×FLAG®, thereby generating pVLCAD-C238A-3×FLAG®. The sequence of both pVLCAD-3×FLAG® and pVLCAD-C238A-3×FLAG® was verified before use in subsequent experiments.
Hepa 1 to 6 cells were grown in Dulbecco's modified Eagle's medium (DMEM) containing 10% fetal bovine serum, 2 mM glutamine, penicillin (100 U/ml), and streptomycin ([…]) at 37° C. in air with 5% CO2. Cells were plated at a density of 5×10^4 cells/cm^2 and cultured under normal conditions for 24 hours. Cells were transfected with FLAG®-tagged wild-type VLCAD or FLAG®-tagged C238A VLCAD with Lipofectamine® 2000 reagent (Life Technologies) according to the protocol provided by the manufacturer. […]

VLCAD [1] = target: T3, VLCAD (Mus musculus, UniProt P50544); experiment: Fraction of S-nitrosylated VLCAD in liver of ob/ob mice (organomercury resin capture); assay type: in vivo; details: treated ob/ob mice
T3 sequence (P50544 42-656): T1 sequence (P50544 42-656)
Description: These findings confirm the MS/MS analysis showing S-nitrosylation of VLCAD in wild-type and GSNO-treated mouse liver but not in PBS-treated ob/ob mouse liver (FIG. 3C). […] This substantial increase in catalytic efficiency can provide efficient removal of fatty acids in ob/ob mouse liver.

VLCAD [2] = target: T3, VLCAD
VLCAD [3] = target: T3, VLCAD; details: liver homogenates

S-nitrosylated fraction of wild-type VLCAD (wild-type VLCAD): 27±3%
VLCAD-specific activity (wild-type VLCAD): fivefold increase
S-nitrosylation of C238A VLCAD (C238A VLCAD mutant): not S-nitrosylated
basal activity of C238A VLCAD (C238A VLCAD mutant): did not change
fraction of VLCAD molecules in liver S-nitrosylated (VLCAD [1]): 25±3%
KM for VLCAD enzymatic activity vs untreated homogenate (VLCAD [2]; eNOS-/- liver homogenates treated ex vivo (5 μM, 30 minutes)): increased five-fold
apparent KM of PBS-injected ob/ob mice relative to GSNO-injected ob/ob mice (VLCAD [3]): more than fivefold higher
Vmax of VLCAD (VLCAD [3]; vs wild-type and PBS-injected ob/ob mice): similar
SMILES: N[C@@H](CCC(=O)N[C@@H](CSN=O)C(=O)NCC(=O)O)C(=O)O [GSNO, S-nitrosoglutathione]
fat deposits in liver slices (histology) (ob/ob mice; vs PBS-injected): fewer fat deposits
liver triglyceride concentration (ob/ob mice; vs PBS-injected): significantly lowered
serum triglyceride concentrations (ob/ob mice; vs wild-type and PBS-treated): similar
S-nitrosylation of VLCAD (VLCAD [2]; eNOS-/- liver homogenates treated ex vivo): readily modified ex vivo at cysteine residue Cys238
